Among the data in patent publication US8648091B2, “Dihydroquinolinones as ectoparasiticides” (Novartis AG, priority 2007, dated 2014) are mean efficacy and activity values, retold here.

For assay [1], the system named is Ctenocephalides felis (cat flea). Description: Activity in vitro against Ctenocephalides felis (cat flea), artificial feeding system. The conditions noted are these: fleas fed on treated blood for 24 hours, dead fleas. Here is the method: 1. Activity In Vitro Against Ctenocephalides felis (Cat Flea). A mixed adult population of fleas is placed in a suitably formatted 96-well plate allowing fleas to access and feed on treated blood via an artificial feeding system. Each compound is tested by serial dilution in order to determine its minimal effective dose (MED). Fleas are fed on treated blood for 24 hours, after which the compound's effect is recorded. Insecticidal activity is determined on the basis of the number of dead fleas recovered from the feeding system.

The test system of assay [2] is Rhipicephalus sanguineus nymphs. Description: In-vivo test against Rhipicephalus sanguineus nymphs on Mongolian gerbils. The arrangement: species or system Mongolian gerbils (Meriones unguiculatus). The conditions noted are these: spray (or spot-on) application, tick number reduction vs placebo, Abbot's formula. Here is the method:
4. In-Vivo Test Against Rhipicephalus sanguineus Nymphs on Mongolian Gerbils (Meriones unguiculatus) On day 0, gerbils are treated with the test compound at a given dose by spray (or spot-on) application. On day +1 (+2), the animals are infested with nymphs of Rhipicephalus. sanguineus. Ticks are left on the animals until full repletion. Seven days after infestation nymphs dropped off fully engorged are collected and counted. They are kept until molting to also evaluate growth regulating activity of the test compound. Efficacy in killing (and growth regulating) is expressed as a tick number (and molted tick number) reduction in comparison with a placebo treated group, using the Abbot's formula.

Assay [3] has as its system Amblyomma variegatum. Description: Activity in vitro against ticks, microplate pre-coated with test compound. The conditions noted are these: at 32 ppm; percentage of dead ticks compared to untreated controls. The procedure: (§1) 2. Activity In Vitro Against Ticks 5-10 ticks of different species (i.e. Rhipicephalus sanguineus, Dermacentor spp., etc.) are distributed into a microplate pre-coated with test compound. Each compound is tested by serial dilution in order to determine its Minimal Effective Dose (MED). The microplates are then incubated at 28° C. and 80% humidity until evaluation. At different time points, ticks are excited by carbon dioxide flush and/or heat. […] If the ticks fail to respond to the stimulation, they are considered dead and the compound is scored as active at the tested concentration. Activity is calculated as a percentage of dead ticks compared to untreated controls.

Assay [4] deals with Dermacentor variabilis. The description is as above. The conditions noted are these: at 10 ppm; percentage of dead ticks compared to untreated controls. The procedure: as §1
Assay [5] has as its system Rhipicephalus sanguineus. The assay is described as above. The following applies: at 10 ppm; percentage of dead ticks compared to untreated controls. Here is the method: as §1
Assay [6] has as its system Dermanyssus gallinae. Description: Activity in vitro against Dermanyssus gallinae. The following applies: at 63 ppm; 10 minutes contact, incubated 5 days. The procedure: 3. Activity In Vitro Against Dermanyssus gallinae A clean female mite population is used to seed a suitably formatted 96-well plate containing the test substances to be evaluated for antiparasitic activity. Each compound is tested by serial dilution in order to determine its Minimal Effective Dose (MED). Mites are left in contact with the test compound for 10 minutes and are then incubated at 25° C. and 60% relative humidity (RH) for 5 days, during which the test compound's effect is monitored. Acaricidal activity is confirmed if mites are dead without having laid eggs. Egg-laying and ensuing mite development are also recorded to identify possible growth-regulating activity.

In assay [7] the test system is Rhipicephalus sanguineus. Description: In-vivo test against ticks (Rhipicephalus sanguineus) on dogs. The conditions noted are these: for six weeks; 25 mg/kg spot-on (15% solution in Transcutol); weekly reinfestation; vs placebo, Abbot's formula. More on the design: species or system Dogs of the beagle breed. The procedure: (§2) 5. In-Vivo Test Against Ticks (Rhipicephalus sanguineus) on Dogs Dogs of the beagle breed are separated into one treatment and one control group (4 dogs per group). On day 0, the dogs are treated with the test compound at a dose of 25 mg/kg (15% solution in Transcutol) by spot-on application (between the shoulder blades). On day +1, the animals are infested with unfed adult ticks (sex ratio 1:1). Evaluation of efficacy is performed at 48 h, and then weekly 48 h after reinfestation with ticks by counting the numbers of dead and live ticks recovered from the animals. Efficacy is expressed as comparison with a placebo treated group using the Abbot's formula. Infestation can be repeated at weekly intervals until efficacy drops.

For assay [8], the system named is Ixodes ricinus. Description: In-vivo test against ticks (Ixodes ricinus) on cats. The following applies: 25 mg/kg spray (1% solution in Polypropylenglycol), vs placebo, Abbot's formula. The procedure: 6. In-Vivo Test Against Ticks (Ixodes ricinus) on Cats
as §2, with “Cats” for “5. In-Vivo Test Against Ticks (Rhipicephalus sanguineus) on Dogs Dogs of the beagle breed”, “cats” for “dogs”, “(1%” for “(15%”, “Polypropylenglycol)” for “Transcutol)”, “spray application.” for “spot-on application (between the shoulder blades).”

As to `C=C(C)C1CCC(C)(/C=C/c2ccc3c(c2O)C(O)(c2ccc(OC)cc2)C(OC)C(=O)N3)O1` (stereo not drawn) [compound No. 8], the figures for the mean efficacy in assay [1] (at 100 ppm) and in assay [2] (at 10 ppm) were 90% and 60%, respectively.
`COc1ccc(C2(O)c3c(ccc(/C=C/C4(C)CCC(C)(C)CO4)c3O)NC(=O)C2OC)cc1` (stereo not drawn) [compound No. 11]: the mean efficacy in assay [1] (at 32 ppm) is 95%; in assay [3], 90%; in assay [4], 100%; in assay [5], 100%; in assay [6] it was 90%; in assay [2] (at 3.2 ppm), 95%. The activity entry was “above 90%” in assay [7], 95% in assay [8] (after one week) and 70% in assay [8] (after two weeks).
`COc1ccc(C2(O)c3c(ccc(/C=C/C4(C)CCC(C(C)(C)O)O4)c3O)NC(=O)C2OC)cc1` (stereo not drawn) [compound No. 9] gave a mean efficacy in assay [1] (at 63 ppm) of 70%.
